From ChEMBL document CHEMBL5543130, “Design, Synthesis, and In Vivo Evaluation of Isosteviol Derivatives as New SIRT3 Activators with Highly Potent Cardioprotective Effects” (J Med Chem, 2024)
Activity calls are given as the source filed them. The calls are words filed in the database; no cut-off is given here.

Tests used:
Danio rerio [1] = test: Cardioprotective activity against doxorubicin-induced Tg(cmlc2: GFP) Zebrafish assessed as […] at 60 uM measured at 72 hrs post fertilization; assay type: functional, organism-based
Danio rerio [2] = test: Cardioprotective activity against doxorubicin-induced Zebrafish cardiomyopathy model assessed as survival rate at 40 uM fertilized for 24 hrs followed by compound administration for 72 hrs and measured at 96 hrs post fertilization by inverted fluorescence microscopic analysis; assay type: functional
Danio rerio [3] = species: Danio rerio; test: Cardioprotective activity against doxorubicin-induced Tg(cmlc2: GFP) Zebrafish assessed as restoration of normal heart structure at 60 uM measured at 72 hrs post fertilization; assay type: functional, organism-based
Danio rerio [4] = test: Cardioprotective activity against doxorubicin-induced Zebrafish cardiomyopathy model assessed as survival rate at 60 uM fertilized for 24 hrs followed by compound administration for 72 hrs and measured at 96 hrs post fertilization by inverted fluorescence microscopic analysis; assay type: functional
Mus musculus [5] = test: Cardioprotective activity against doxorubicin-induced C57BL/6 mouse cardiomyopathy model assessed as increase in cardiac output at 2.5 mg/kg, ip administered for 7 days by Echocardiography analysis; assay type: functional; conditions: time 7 day
[6] = Toxicity in Tg(cmlc2: GFP) Zebrafish assessed as mortality at 450 uM measured at 72 hrs post fertilization; parameters: species or system Danio rerio; conditions: in vivo
Mus musculus [7] = test: Cardioprotective activity against doxorubicin-induced C57BL/6 mouse cardiomyopathy model assessed as increase in heart weight to tibia length ratio at 2.5 mg/kg, ip administered for 7 days by Echocardiography analysis; assay type: functional; conditions: time 7 day
Mus musculus [8] = test: Cardioprotective activity against doxorubicin-induced C57BL/6 mouse cardiomyopathy model assessed as increase in ejection fraction at 2.5 mg/kg, ip administered for 7 days by Echocardiography analysis; assay type: functional; conditions: time 7 day
Mus musculus [9] = test: Cardioprotective activity against doxorubicin-induced C57BL/6 mouse cardiomyopathy model assessed as increase in fractional shortening at 2.5 mg/kg, ip administered for 7 days by Echocardiography analysis; assay type: functional; conditions: time 7 day
[10] = Water solubility of the compound measured for 24 hrs by HPLC analysis; assay type: physicochemical

Compound	Activity (Danio rerio [1])	survival at 40 µM (Danio rerio [2]) [%]	Activity (Danio rerio [3])	survival at 60 µM (Danio rerio [4]) [%]	Activity (Mus musculus [5]) [%]	Activity [6]	Ratio (Mus musculus [7]) [mg/mm]	Activity (Mus musculus [8]) [%]	Activity (Mus musculus [9]) [%]	solubility at 24 h [10] [mg/mL]
C[C@@H]1CC(=O)NN=C1c1ccc(NN=C(C#N)C#N)cc1 [LEVOSIMENDAN]	Active	75	Active	84	–	–	–	–	–	–
C[C@@]12CC[C@@H]3[C@@](CC[C@H]4[C@@]3(C)CCC[C@@]4(C)C(=O)N3CCN(C(=O)c4ccccc4C(=O)[O-])CC3)(CC1=O)C2.[Na+]	–	–	–	–	10	Non-Toxic	6.3	59.8	31.3	54
